The assay has as its target human LPAR1 (Homo sapiens (Human), UniProt Q92633). In words: LPAR1 intracellular calcium mobilization assay (antagonist mode, FLIPR). It is filed as cell-based. The settings on record: CHO-K1 EDG2 cells expressing human LPAR1, LPA 18:2 at EC80 (100 nM), test compound 0.5 nM to 10 μM. (In general: A change in cytosolic calcium serves as a functional read-out for many receptors and channels.)
Chain of human LPAR1 (Q92633 whole entry): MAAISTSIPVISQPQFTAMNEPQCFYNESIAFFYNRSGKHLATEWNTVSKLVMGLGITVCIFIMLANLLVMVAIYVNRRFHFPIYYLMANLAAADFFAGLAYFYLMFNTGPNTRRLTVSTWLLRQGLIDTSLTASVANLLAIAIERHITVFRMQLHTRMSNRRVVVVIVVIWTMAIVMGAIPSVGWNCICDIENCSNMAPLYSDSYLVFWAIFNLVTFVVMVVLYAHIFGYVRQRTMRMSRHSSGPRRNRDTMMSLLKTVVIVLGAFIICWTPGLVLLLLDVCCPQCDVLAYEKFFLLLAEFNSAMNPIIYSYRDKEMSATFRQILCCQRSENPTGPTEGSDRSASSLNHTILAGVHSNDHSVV
For orientation: EC50 means the concentration that produces a half-maximal response. As to `C[C@@H](OC(=O)Nc1c(-c2ccc(NC(=O)C34CC(CO3)C4)cn2)nnn1C)c1cccnc1Cl` [Compound 105, (R)-1-(2-chloropyridin-3-yl)ethyl (4-(5-(2-oxabicyclo[2.1.1]hexane-1-carboxamido)pyridin-2-yl)-1-methyl-1H-1,2,3-triazol-5-yl)carbamate], the EC50 came out at 1580 nM.

In the case of `C[C@@H](OC(=O)Nc1c(-c2ccc(NC(=O)[C@@H]3C[C@H]3c3ccncc3Cl)cn2)nnn1C)c1cc(F)cnc1F` (mixture of isomers) [Compound 238, (R)-1-(2,5-difluoropyridin-3-yl)ethyl (4-(5-((1RS,2RS)-2-(3-chloropyridin-4-yl)cyclopropane-1-carboxamido)pyridin-2-yl)-1-methyl-1H-1,2,3-triazol-5-yl)carbamate], the EC50 amounted to 52.5 nM.

With `C[C@@H](OC(=O)Nc1c(-c2ccc(NC(=O)[C@@H]3C[C@H]3F)cn2)nnn1C)c1cccnc1F` [Compound 169, (R)-1-(2-fluoropyridin-3-yl)ethyl (4-(5-((1S,2R)-2-fluorocyclopropane-1-carboxamido)pyridin-2-yl)-1-methyl-1H-1,2,3-triazol-5-yl)carbamate], the half-maximal effective concentration (EC50) stood at 191 nM.

Take `C[C@@H](OC(=O)Nc1c(-c2ccc(NC(=O)[C@@]3(C#N)C[C@@H]3C(F)(F)F)cn2)nnn1C)c1cccnc1Cl` [Compound 202, (R)-1-(2-chloropyridin-3-yl)ethyl (4-(5-((1S,2S)-1-cyano-2-(trifluoromethyl)cyclopropane-1-carboxamido)pyridin-2-yl)-1-methyl-1H-1,2,3-triazol-5-yl)carbamate]: the 50% effective concentration (EC50) is 5 nM.

As to `C[C@@H](OC(=O)Nc1c(-c2ccc(NC(=O)C3(C#N)CC3)cn2)nnn1C)c1cccnc1Cl` [Compound 67, (R)-1-(2-chloropyridin-3-yl)ethyl (4-(5-(1-cyanocyclopropane-1-carboxamido)pyridin-2-yl)-1-methyl-1H-1,2,3-triazol-5-yl)carbamate], the EC50 stood at 30.8 nM.

As to `C[C@@H](OC(=O)Nc1c(-c2ccc(NC(=O)c3ccnc(F)c3F)cn2)nnn1C)c1cccnc1F` [Compound 294, (R)-1-(2-fluoropyridin-3-yl)ethyl (4-(5-(2,3-difluoroisonicotinamido)pyridin-2-yl)-1-methyl-1H-1,2,3-triazol-5-yl)carbamate], the EC50 amounted to 238 nM.

Turning to `C[C@@H](OC(=O)Nc1c(-c2ccc(NC(=O)C34CC(C)(C3)C4)cn2)nnn1C)c1cccnc1Cl` [Compound 47, (R)-1-(2-chloropyridin-3-yl)ethyl (1-methyl-4-(5-(3-methylbicyclo[1.1.1]pentane-1-carboxamido)pyridin-2-yl)-1H-1,2,3-triazol-5-yl)carbamate], the concentration for a half-maximal effect (EC50) was 19.1 nM.

As for `C[C@@H](OC(=O)Nc1c(-c2ccc(NC(=O)C3CC4(CC4)C3)cn2)nnn1C)c1cccnc1Cl` [Compound 88, (R)-1-(2-chloropyridin-3-yl)ethyl (1-methyl-4-(5-(spiro[2.3]hexane-5-carboxamido)pyridin-2-yl)-1H-1,2,3-triazol-5-yl)carbamate], the concentration for a half-maximal effect (EC50) turned out to be 8.6 nM.

For `C[C@@H](OC(=O)Nc1c(-c2ccc(NC(=O)[C@H]3CCC3(F)F)cn2)nnn1C)c1cccnc1Cl` [Compound 91, (R)-1-(2-chloropyridin-3-yl)ethyl (4-(5-((R)-2,2-difluorocyclobutane-1-carboxamido)pyridin-2-yl)-1-methyl-1H-1,2,3-triazol-5-yl)carbamate], the EC50 stood at 187 nM.

For the compound `C[C@@H](OC(=O)Nc1c(-c2ccc(NC(=O)[C@@H]3C[C@H]3c3ccccn3)cn2)nnn1C)c1cc(F)cnc1F` [Compound 265, (R)-1-(2,5-difluoropyridin-3-yl)ethyl (1-methyl-4-(5-((1R,2R)-2-(pyridin-2-yl)cyclopropane-1-carboxamido)pyridin-2-yl)-1H-1,2,3-triazol-5-yl)carbamate], the EC50 turned out to be 19.5 nM.

As for `C[C@@H](OC(=O)Nc1c(-c2ccc(NC(=O)[C@@H]3CC3(F)F)cn2)nnn1C)c1cc(F)cnc1F` [Compound 164, (R)-1-(2,5-difluoropyridin-3-yl)ethyl (4-(5-((S)-2,2-difluorocyclopropane-1-carboxamido)pyridin-2-yl)-1-methyl-1H-1,2,3-triazol-5-yl)carbamate], the EC50 stood at 245 nM.

`CCC1(C(=O)Nc2ccc(-c3nnn(C)c3NC(=O)O[C@H](C)c3cccnc3Cl)nc2)COC1` [Compound 96, (R)-1-(2-chloropyridin-3-yl)ethyl (4-(5-(3-ethyloxetane-3-carboxamido)pyridin-2-yl)-1-methyl-1H-1,2,3-triazol-5-yl)carbamate]: the EC50 worked out at 2330 nM.

`C[C@@H](OC(=O)Nc1c(-c2ccc(NC(=O)C3CC(C)(O)C3)cn2)nnn1C)c1cccnc1Cl` (stereo partly drawn) [Compound 109, (R)-1-(2-chloropyridin-3-yl)ethyl (4-(5-(3-hydroxy-3-methylcyclobutane-1-carboxamido)pyridin-2-yl)-1-methyl-1H-1,2,3-triazol-5-yl)carbamate]: the concentration for a half-maximal effect (EC50) was 1710 nM.

With `COC(=O)Nc1ccc(-c2nnn(C)c2NC(=O)O[C@H](CF)c2cccc(F)c2)nc1` [Compound 19, (S)-2-fluoro-1-(3-fluorophenyl)ethyl (4-(5-((methoxycarbonyl)amino)pyridin-2-yl)-1-methyl-1H-1,2,3-triazol-5-yl)carbamate], the EC50 came out at 276 nM.

As for `C[C@@H](OC(=O)Nc1c(-c2ccc(NC(=O)[C@]3(C#N)C[C@H]3C(F)F)cn2)nnn1C)c1cc(F)cnc1F` [Compound 245, (R)-1-(2,5-difluoropyridin-3-yl)ethyl (4-(5-((1R,2R)-1-cyano-2-(difluoromethyl)cyclopropane-1-carboxamido)pyridin-2-yl)-1-methyl-1H-1,2,3-triazol-5-yl)carbamate], the EC50 is 11.7 nM.

Regarding `C[C@@H](OC(=O)Nc1c(-c2ccc(NC(=O)c3cc(F)nc(F)c3)cn2)nnn1C)c1cc(F)cnc1F` [Compound 244, (R)-1-(2,5-difluoropyridin-3-yl)ethyl (4-(5-(2,6-difluoroisonicotinamido)pyridin-2-yl)-1-methyl-1H-1,2,3-triazol-5-yl)carbamate], the EC50 came to 131 nM.

Regarding `C[C@@H](OC(=O)Nc1c(-c2ccc(NC(=O)C3(C(F)(F)F)CC3)cn2)nnn1C)c1cccnc1Cl` [Compound 55, (R)-1-(2-chloropyridin-3-yl)ethyl (1-methyl-4-(5-(1-(trifluoromethyl)cyclopropane-1-carboxamido)pyridin-2-yl)-1H-1,2,3-triazol-5-yl)carbamate], the EC50 was 478 nM.

As for `C[C@@H](OC(=O)Nc1c(-c2ccc(NC(=O)C34CC(C#N)(C3)C4)cn2)nnn1C)c1cc(F)cnc1Cl` [Compound 167, (R)-1-(2-chloro-5-fluoropyridin-3-yl)ethyl (4-(5-(3-cyanobicyclo[1.1.1]pentane-1-carboxamido)pyridin-2-yl)-1-methyl-1H-1,2,3-triazol-5-yl)carbamate], the EC50 amounted to 99.4 nM.

`CC(=O)Nc1cnc(-c2nnn(C)c2NC(=O)O[C@H](C)c2cccnc2Cl)c(F)c1` [Compound 9, (R)-1-(2-chloropyridin-3-yl)ethyl (4-(5-acetamido-3-fluoropyridin-2-yl)-1-methyl-1H-1,2,3-triazol-5-yl)carbamate]: the EC50 worked out at 2700 nM.

The values above are taken from patent US11912686B2 (Gilead Sciences, Inc., priority 2020, dated 2024).
